Each structure is given as a SMILES string.

This note sets out measurements from ChEMBL document CHEMBL6087467, “Probing the Histamine H1 Receptor Binding Site to Explore Ligand Binding Kinetics” (J Med Chem, 2025).

Test [1] deals with T1, Histamine H1 receptor (Homo sapiens, UniProt P35367). Particulars: HEK293T, time 4.0 hrs.
The target in test [2] is T1, Histamine H1 receptor. Particulars: HEK293T, time 4.0 hrs. This is another data set of the same source.
For test [3], the target named is T1, Histamine H1 receptor. It counts as cell-based. The note with it: hek293t.
The target of test [4] is T1, Histamine H1 receptor. Briefly: biochemical. The format is cell-based, HEK293T.
Description: Displacement of [3H]-mepyramine from human histamine H1 receptor expressed in HEK293T cells assessed as dissociation constant incubated for 4 hrs by competitive binding assay
The target of test [5] is T1, Histamine H1 receptor. Briefly: biochemical. It counts as cell-based, HEK293T. This is another data set of the same source.
Description: Displacement of [3H]-mepyramine from human histamine H1 receptor expressed in HEK293T cells assessed as inhibition constant incubated for 4 hrs by competitive binding assay

T1 sequence (P35367 whole entry): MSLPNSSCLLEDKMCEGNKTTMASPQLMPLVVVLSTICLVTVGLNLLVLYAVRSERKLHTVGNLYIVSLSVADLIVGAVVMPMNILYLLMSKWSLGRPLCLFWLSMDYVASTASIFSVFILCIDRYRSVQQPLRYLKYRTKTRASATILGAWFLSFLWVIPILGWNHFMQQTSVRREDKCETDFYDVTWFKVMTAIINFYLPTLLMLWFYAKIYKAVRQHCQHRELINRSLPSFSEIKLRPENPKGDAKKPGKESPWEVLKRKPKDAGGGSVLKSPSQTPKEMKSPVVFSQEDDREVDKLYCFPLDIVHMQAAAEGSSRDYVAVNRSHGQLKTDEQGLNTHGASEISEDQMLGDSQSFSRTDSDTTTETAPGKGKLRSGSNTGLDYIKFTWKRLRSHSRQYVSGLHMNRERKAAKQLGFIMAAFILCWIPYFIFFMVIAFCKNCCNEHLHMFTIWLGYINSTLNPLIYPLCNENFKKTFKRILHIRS

`O=C(O)CCCN1CCC(Oc2ccccc2Cc2ccccc2)CC1`: the Ka in test [1] was 2.9 10^6/M/min. Moreover, the Retention time in test [2] was found to be 10 min. For the same compound, the “Dissociation rate constant (koff)” value in test [3] amounted to 0.1 min⁻¹.
The corresponding values for `COc1ccc(Cc2ccccc2)c(OC2CCN(C)CC2)c1` are 60 10^6/M/min, 2 min and 0.5 min⁻¹.
The corresponding values for `CN1CCC(Oc2cc(/C=C/C(=O)O)ccc2Cc2ccccc2)CC1` are 0.62 10^6/M/min, 18 min and 0.055 min⁻¹.
On to `CN1CCC(Oc2cc(C(=O)O)ccc2Cc2ccccc2)CC1`, for which, in test [1], the Ka is 0.06 10^6/M/min. In test [2], this compound came in with a Retention time of 1.2 min. Besides, the “Dissociation rate constant (koff)” value in test [3] came out at 1 min⁻¹.
In the case of `CN(C)CC/C=C1/c2ccccc2COc2ccc(CC(=O)O)cc21`, in test [1], the Ka was 1.9 10^6/M/min. For the same compound, the Retention time in test [2] is 190 min.
The compound `CC(=O)Cc1cccc(Cc2ccccc2)c1OC1CCN(C)CC1` had a Kd in test [4] of 39.8 nM. For the same compound, the Ka in test [1] is 2.08 10^6/M/min. Further, the affinity in test [5] corresponds to a Ki of 39.8 nM. Besides, the Retention time in test [2] came out at 12.1 min. Besides, the “Dissociation rate constant (koff)” value in test [3] was found to be 0.083 min⁻¹.
Turning to `c1ccc(Cc2ccccc2OC2CCN(CCCCc3nnn[nH]3)CC2)cc1`, in test [1], the Ka is 3.7 10^6/M/min. Further, in test [2], the Retention time was determined as 48 min. Also, the “Dissociation rate constant (koff)” value in test [3] turned out to be 0.021 min⁻¹.
For the compound `O=C(O)CCCCCCN1CCC(Oc2ccccc2Cc2ccccc2)CC1`, the Ka in test [1] was 2.5 10^6/M/min. In test [2], this compound yielded a Retention time of 13 min. Besides, in test [3], the “Dissociation rate constant (koff)” value was 0.076 min⁻¹.
Regarding `O=C(O)CCCCN1CCC(Oc2ccccc2Cc2ccccc2)CC1`, in test [1], the Ka was 3.2 10^6/M/min. In test [2], this compound came in with a Retention time of 23 min. In test [3], the “Dissociation rate constant (koff)” value turned out to be 0.045 min⁻¹.
Consider `Cc1ccc(/C(=C\CN2CCCC2)c2ccccn2)cc1` [TRIPROLIDINE], for which the Ka in test [1] is 36 10^6/M/min.
`CN1CCC(Oc2c(/C=C/C(=O)O)cccc2Cc2ccccc2)CC1`: the Ka in test [1] is 1.6 10^6/M/min. In test [2], this compound registered a Retention time of 3 min. The “Dissociation rate constant (koff)” value in test [3] came out at 0.055 min⁻¹.
As to `O=C(O)CCCCCCCN1CCC(Oc2ccccc2Cc2ccccc2)CC1`, the Ka in test [1] was 2.37 10^6/M/min. For the same compound, the Retention time in test [2] turned out to be 15 min. Further, in test [3], the “Dissociation rate constant (koff)” value was 0.069 min⁻¹.
Take `CN1CCC(Oc2c(CO)cccc2Cc2ccccc2)CC1`: the Ka in test [1] was 27 10^6/M/min. Also, in test [2], the Retention time is 1.4 min. In test [3], the “Dissociation rate constant (koff)” value was determined as 0.73 min⁻¹.
For `CN1CCC(Oc2ccccc2Cc2ccccc2)CC1`, the Ka in test [1] was 160 10^6/M/min. For the same compound, the Retention time in test [2] was 2 min.
`CN1CCC(Oc2c(Cc3ccccc3)cccc2C(=O)O)CC1`: the Ka in test [1] is 0.5 10^6/M/min. In test [2], this compound came in with a Retention time of 4.2 min. Also, the “Dissociation rate constant (koff)” value in test [3] amounted to 0.24 min⁻¹.
Regarding `O=C(O)COCCN1CCN([C@H](c2ccccc2)c2ccc(Cl)cc2)CC1`, in test [1], the Ka was 1.4 10^6/M/min.
With `CN1CCC(Oc2cc(CC(=O)O)ccc2Cc2ccccc2)CC1`, the Ka in test [1] was 1.3 10^6/M/min. The same compound registered a Retention time in test [2] of 6 min. Further, the “Dissociation rate constant (koff)” value in test [3] stood at 0.17 min⁻¹.
Consider `O=C(O)CCN1CCC(Oc2ccccc2Cc2ccccc2)CC1`, for which the Ka in test [1] is 2.9 10^6/M/min. In test [2], the Retention time amounted to 9 min. Further, in test [3], the “Dissociation rate constant (koff)” value was found to be 0.11 min⁻¹.
On to `CN1CCC(Oc2cc(CO)ccc2Cc2ccccc2)CC1`, for which the Ka in test [1] was 98 10^6/M/min. This compound displayed a Retention time in test [2] of 4 min. For the same compound, the “Dissociation rate constant (koff)” value in test [3] is 0.25 min⁻¹.
As to `O=C(O)CCCCCN1CCC(Oc2ccccc2Cc2ccccc2)CC1`, in test [1], the Ka is 4 10^6/M/min. The Retention time in test [2] worked out at 17 min. Further, the “Dissociation rate constant (koff)” value in test [3] was determined as 0.06 min⁻¹.
